# In patent US20230278995A1, “1,3,4-OXADIAZOLE DERIVATIVE COMPOUNDS AS HISTONE DEACETYLASE 6 INHIBITOR, AND THE PHARMACEUTICAL COMPOSITION COMPRISING THE SAME” (CHONG KUN DANG PHARMACEUTICAL CORP., priority 2020, published 2023):
# Key:
# human recombinant HDAC1 = biological target: T1, human recombinant HDAC1 (Homo sapiens, UniProt Q13547); experiment: HDAC enzyme activity inhibition assay (HDAC Fluorimetric Drug Discovery Kit), HDAC1; format: biochemical; settings: human recombinant HDAC1, Fluor de Lys-SIRT1 substrate, 30° C. 60 minutes
# T1 construct: purchased Enzo Life Sciences, Inc. BML-SE456
# Procedure: (§1) For the HDAC1 enzyme activity test, human recombinant HDAC1 (BML-SE456) was used as an enzyme source and Fluor de Lys©-SIRT1 (BNL-K1177) was used as a substrate. After dispensing 5-fold diluted compounds into a 96-well plate, 0.3 μg of enzyme and 10 μM substrate were added to each well of the plate and allowed to react at 30° C. for 60 minutes. Next, Fluor de Lys© Developer II (BML-K1176) was added and reacted for 30 minutes to complete the reaction, and then the fluorescence values (Ex 360, Em 460) were measured using a multi-plate reader (Flexstation 3, Molecular Device). The HDAC6 enzymes were tested using human recombinant HDAC6 (382180) from Calbiochem Inc., according to the same protocol as the HDAC1 enzyme activity test method. With respect to the final result values, respective IC50 values were calculated using GraphPad Prism 4.0 program (Table 2).
# human recombinant HDAC6 = biological target: T2, human recombinant HDAC6 (Homo sapiens, UniProt Q9UBN7); experiment: HDAC enzyme activity inhibition assay (HDAC Fluorimetric Drug Discovery Kit), HDAC6; format: biochemical; settings: for HDAC6 selectivity (fold): HDAC1 vs HDAC6; for IC50: human recombinant HDAC6, same protocol as HDAC1
# T2 construct: purchased Calbiochem Inc. 382180
# T2 sequence (Q9UBN7 1-1215): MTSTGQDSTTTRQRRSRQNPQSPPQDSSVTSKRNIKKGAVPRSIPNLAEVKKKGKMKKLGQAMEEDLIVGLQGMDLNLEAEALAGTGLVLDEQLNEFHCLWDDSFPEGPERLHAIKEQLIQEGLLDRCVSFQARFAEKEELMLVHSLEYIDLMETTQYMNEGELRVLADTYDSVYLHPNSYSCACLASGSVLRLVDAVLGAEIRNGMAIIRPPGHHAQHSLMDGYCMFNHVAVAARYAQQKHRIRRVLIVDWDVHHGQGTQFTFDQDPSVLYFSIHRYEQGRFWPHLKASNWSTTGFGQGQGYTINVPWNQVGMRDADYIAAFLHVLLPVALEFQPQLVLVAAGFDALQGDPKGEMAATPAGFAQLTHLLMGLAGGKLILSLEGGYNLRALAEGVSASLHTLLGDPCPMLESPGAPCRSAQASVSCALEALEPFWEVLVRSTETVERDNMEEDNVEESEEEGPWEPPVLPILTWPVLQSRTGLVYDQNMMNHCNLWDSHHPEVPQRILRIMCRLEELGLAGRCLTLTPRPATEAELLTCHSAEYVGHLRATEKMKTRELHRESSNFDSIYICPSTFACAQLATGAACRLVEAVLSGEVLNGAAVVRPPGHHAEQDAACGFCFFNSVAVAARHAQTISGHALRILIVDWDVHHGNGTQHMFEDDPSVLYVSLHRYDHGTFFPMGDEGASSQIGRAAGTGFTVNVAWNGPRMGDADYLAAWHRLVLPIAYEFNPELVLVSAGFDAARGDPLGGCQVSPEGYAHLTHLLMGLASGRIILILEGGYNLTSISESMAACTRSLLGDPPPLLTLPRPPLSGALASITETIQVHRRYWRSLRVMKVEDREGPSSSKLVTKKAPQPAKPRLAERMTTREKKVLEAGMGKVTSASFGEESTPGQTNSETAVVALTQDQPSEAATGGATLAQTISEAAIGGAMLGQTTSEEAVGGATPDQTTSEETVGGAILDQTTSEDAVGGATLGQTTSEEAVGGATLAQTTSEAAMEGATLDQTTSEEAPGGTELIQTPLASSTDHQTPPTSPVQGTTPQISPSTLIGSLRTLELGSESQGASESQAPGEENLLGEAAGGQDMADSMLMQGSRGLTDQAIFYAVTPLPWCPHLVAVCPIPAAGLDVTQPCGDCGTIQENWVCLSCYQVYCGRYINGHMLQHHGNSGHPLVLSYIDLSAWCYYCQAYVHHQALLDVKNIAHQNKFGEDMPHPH
# Procedure: as §1
# T1 sequence (Q13547 whole entry): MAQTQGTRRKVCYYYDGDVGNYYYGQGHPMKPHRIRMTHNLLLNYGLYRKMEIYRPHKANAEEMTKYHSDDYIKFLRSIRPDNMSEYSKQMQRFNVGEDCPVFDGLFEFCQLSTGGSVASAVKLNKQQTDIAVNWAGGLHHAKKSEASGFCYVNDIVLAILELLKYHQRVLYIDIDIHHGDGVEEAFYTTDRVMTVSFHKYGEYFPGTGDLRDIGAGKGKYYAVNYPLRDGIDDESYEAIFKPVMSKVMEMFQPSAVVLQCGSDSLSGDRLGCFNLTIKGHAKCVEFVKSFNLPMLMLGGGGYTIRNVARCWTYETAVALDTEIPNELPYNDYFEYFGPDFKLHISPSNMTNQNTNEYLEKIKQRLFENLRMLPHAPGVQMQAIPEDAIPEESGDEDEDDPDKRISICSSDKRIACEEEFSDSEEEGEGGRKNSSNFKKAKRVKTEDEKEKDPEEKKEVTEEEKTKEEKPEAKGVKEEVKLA
SMILES,IC50 (human recombinant HDAC1),HDAC6 selectivity (fold) (human recombinant HDAC6),IC50 (human recombinant HDAC6)
"O=C(N(Cc1ccc(-c2nnc(C(F)F)o2)cc1F)c1ccccc1)C1(F)CCNCC1 [Compound 2865, N-(4-(5-(difluoromethyl)-1,3,4-oxadiazol-2-yl)-2-fluorobenzyl)-4-fluoro-N-phenylpiperidine-4-carboxamide 2,2,2-trifluoroacetate]",> 30000 nM,30 fold,1000 nM
"CN1CCC(F)(C(=O)N(Cc2ccc(-c3nnc(C(F)F)o3)cc2F)c2ccccc2)CC1 [Compound 2866, N-(4-(5-(difluoromethyl)-1,3,4-oxadiazol-2-yl)-2-fluorobenzyl)-4-fluoro-1-methyl-N-phenylpiperidine-4-carboxamide]",> 20000 nM,149 fold,134 nM
"CCN1CCC(F)(C(=O)N(Cc2ccc(-c3nnc(C(F)F)o3)cc2F)c2ccccc2)CC1 [Compound 2867, N-(4-(5-(difluoromethyl)-1,3,4-oxadiazol-2-yl)-2-fluorobenzyl)-1-ethyl-4-fluoro-N-phenylpiperidine-4-carboxamide]",> 20000 nM,97 fold,204 nM
"O=C(N(Cc1ccc(-c2nnc(C(F)F)o2)cc1F)c1ccccc1)C1(F)CCN(C2CCC2)CC1 [Compound 2868, 1-cyclobutyl-N-(4-(5-(difluoromethyl)-1,3,4-oxadiazol-2-yl)-2-fluorobenzyl)-4-fluoro-N-phenylpiperidine-4-carboxamide]",> 20000 nM,,
"O=C(N(Cc1ccc(-c2nnc(C(F)F)o2)cc1F)c1ccccc1)C1(F)CCN(C2COC2)CC1 [Compound 2869, N-(4-(5-(difluoromethyl)-1,3,4-oxadiazol-2-yl)-2-fluorobenzyl)-4-fluoro-1-(oxetan-3-yl)-N-phenylpiperidine-4-carboxamide]",> 50000 nM,464 fold,108 nM
"CN1CCC(F)(C(=O)N(Cc2ccc(-c3nnc(C(F)F)o3)cn2)c2ccccc2)CC1 [Compound 2951, N-((5-(5-(difluoromethyl)-1,3,4-oxadiazol-2-yl)pyridin-2-yl)methyl)-4-fluoro-1-methyl-N-phenylpiperidine-4-carboxamide]",42600 nM,569 fold,74.7 nM

# The next lines start with the values.
IC50 (human recombinant HDAC1),HDAC6 selectivity (fold) (human recombinant HDAC6),IC50 (human recombinant HDAC6),SMILES
> 50000 nM,504 fold,99.1 nM,"CC(C)N1CCC(F)(C(=O)N(Cc2ccc(-c3nnc(C(F)F)o3)cn2)c2ccccc2)CC1 [Compound 2952, N-((5-(5-(difluoromethyl)-1,3,4-oxadiazol-2-yl)pyridin-2-yl)methyl)-4-fluoro-1-isopropyl-N-phenylpiperidine-4-carboxamide]"
44000 nM,543 fold,80.9 nM,"O=C(N(Cc1ccc(-c2nnc(C(F)F)o2)cn1)c1ccccc1)C1(F)CCN(C2CCC2)CC1 [Compound 2953, 1-cyclobutyl-N-((5-(5-(difluoromethyl)-1,3,4-oxadiazol-2-yl)pyridin-2-yl)methyl)-4-fluoro-N-phenylpiperidine-4-carboxamide]"
> 50000 nM,,,"O=C(N(Cc1ccc(-c2nnc(C(F)F)o2)cn1)c1cccc(F)c1)C1(F)CN(C2CCCC2)C1 [Compound 3051, 1-cyclopentyl-N-((5-(5-(difluoromethyl)-1,3,4-oxadiazol-2-yl)pyridin-2-yl)methyl)-3-fluoro-N-(3-fluorophenyl)azetidine-3-carboxamide]"
> 50000 nM,,,"COCCC(=O)N1CC(F)(C(=O)N(Cc2ccc(-c3nnc(C(F)F)o3)cn2)c2cccc(F)c2)C1 [Compound 3167, N-((5-(5-(difluoromethyl)-1,3,4-oxadiazol-2-yl)pyridin-2-yl)methyl)-3-fluoro-N-(3-fluorophenyl)-1-(3-methoxypropanoyl)azetidine-3-carboxamide]"
> 50000 nM,,,"O=C(N1CCC(F)(C(=O)N(Cc2ccc(-c3nnc(C(F)F)o3)cc2F)c2ccccc2)CC1)C(F)(F)F [Compound 3441, N-(4-(5-(difluoromethyl)-1,3,4-oxadiazol-2-yl)-2-fluorobenzyl)-4-fluoro-N-phenyl-1-(2,2,2-trifluoroacetyl)piperidine-4-carboxamide]"
